Assay results published in patent US11231421B2, “Methods of treating multifocal cancer” (NYMOX CORPORATION, priority 2019, dated 2022).
Where no end group is shown, it is not given here.

Tests used:
[1] = test system: low grade prostate cancer (Gleason grade 6); experiment: Clinical study, Example 5: cancer treatment with new multifocal with Gleason upgrade; assay type: in vivo, human; conditions: for % Imp.: cancer treatment with new multifocal with Gleason upgrade, entire prostate: vs control active surveillance
Protocol: (§1) In a series of clinical studies a total of 146 men with low grade prostate cancer (Gleason grade 6) were treated in the following manner. Patients were randomized and treated with a transrectal intraprostatic single injection of a composition comprising 2.5 mg FT (n=49), or a composition comprising 15 mg FT (n=48), or were subject to control active surveillance (n=49). After the first follow-up biopsy at 45 days post-randomization, 18 patients in the control active surveillance group crossed over to a single administration of a composition in which 10 patients received 2.5 mg FT, and 8 patients received 15 mg FT. Patients were followed for 5 years including biopsies at baseline, 45 days, 18, 36, and 48 months, and urological evaluations with PSA every 6 months. Patients with Gleason grade increase or who elected surgical or radiotherapeutic intervention exited the study and were still included in the data analysis. Percentage of normal biopsies in the baseline focus quadrant and median tumor grade and volume were assessed; progression was measured by clinical and pathological outcomes including Gleason grade, and Gleason grade primary pattern, in the entire prostate sampled as well as for the treated prostate lobe. Interventions associated with Gleason grade increase as well as total incidence for any conventional surgical intervention (e.g., surgery, radiotherapy, and/or chemotherapy) was assessed.

[2] = test system: low grade prostate cancer (Gleason grade 6); experiment: Clinical study, Example 3: hemi-prostate multifocal cancer with Gleason upgrade; assay type: in vivo, human; conditions: for % Imp.: hemi-prostate multifocal cancer with Gleason upgrade: vs control active surveillance
Protocol: as §1

[3] = test system: injected areas; experiment: Histology of injected areas after treatment; assay type: in vivo; conditions: up to several weeks after treatment
Description: Use of FT is a preferred embodiment. FT is a new molecular entity which in vitro stimulates caspase pathways (activation of caspases 7, 8, and 10, caspase recruitment domains 6, 11, and 14, and DIABLO), tumor necrosis factor pathways (activation of TNF1, TNFSF6, TNFSF8, TNFSF9, CD70 ligands, and TNFRSF19L, TNFRSF25, TRAF2, TRAF3, TRAF4, TRAF6 receptors), and BCL pathways (activation of BIK, HRK, BCL2L10 and BCL3) in prostate glandular epithelial cells, based on tissue culture genetic array data. […] The apoptotic process leads to typical ultrastructural progressive changes of membranous disruption and swelling, progressively deepening nuclear invaginations with eventual membranous bleb formations and cell death and fragmentation into apoptotic bodies.

[4] = test system: low grade prostate cancer (Gleason grade 6); experiment: Clinical study, Example 8: cancer treatment with new multifocal and an increase in Gleason grade primary pattern in the hemi-prostate; assay type: in vivo, human; conditions: for % Imp.: cancer treatment with new multifocal and an increase in Gleason grade primary pattern in the hemi-prostate: vs control active surveillance
Protocol: as §1, with “assessed. This example evaluated the percentage of patients having conventional cancer treatment (surgery, radiotherapy, or chemotherapy), and having multifocal prostate cancer in the lobe (or hemi-prostate) in which the foci were initially treated with Gleason primary pattern (cancer treatment with new multifocal and an increase in Gleason grade primary pattern in the hemi-prostate).” for “assessed.”

[5] = test system: low grade prostate cancer (Gleason grade 6); experiment: Clinical study, Example 2: new multifocal with increase Gleason primary pattern in entire prostate; assay type: in vivo, human; conditions: for % Imp.: new multifocal with increase Gleason primary pattern, entire prostate: vs control active surveillance
Protocol: as §1

[6] = FT 2.5 mg, <=18 mos from treatment
[7] = FT 2.5 mg, <=36 mos from treatment
[8] = FT 2.5 mg, <=48 mos from treatment
[9] = FT 15 mg, <=18 mos from treatment
[10] = FT 15 mg, <=36 mos from treatment
[11] = FT 15 mg, <=48 mos from treatment
[12] = Pooled FT (2.5 mg and 15 mg), <=18 mos from treatment
[13] = Pooled FT (2.5 mg and 15 mg), <=18 mos
[14] = Pooled FT (2.5 mg and 15 mg), <=36 mos from treatment
[15] = Pooled FT (2.5 mg and 15 mg), <=36 mos
[16] = Pooled FT (2.5 mg and 15 mg), <=48 mos from treatment
[17] = Pooled FT (2.5 mg and 15 mg), <=48 mos

“fexapotide triflutate (IDQQVLSRIKLEIKRCL; also: trifluoroacetate salt) [FT]” was tested, and the “percentage of patients: cancer treatment with new multifocal with Gleason upgrade, entire prostate” value [1, 6] was 9.8%, the “% Imp.: cancer treatment with new multifocal with Gleason upgrade, entire prostate” value (from here on “% Imp.: cancer treatment … entire prostate”) ([1]; FT 2.5 mg, <=18 mos) was 62.7% and the “percentage of patients: cancer treatment with new multifocal with Gleason upgrade, entire prostate” value [1, 7] was 16.7%. The “% Imp.: cancer treatment … entire prostate” value ([1]; FT 2.5 mg, <=36 mos) was 52.7%, the “percentage of patients: cancer treatment with new multifocal with Gleason upgrade, entire prostate” value [1, 8] was 26% and the “% Imp.: cancer treatment … entire prostate” value ([1]; FT 2.5 mg, <=48 mos) was 48%. For the same substance, the “percentage of patients: cancer treatment with new multifocal with Gleason upgrade, entire prostate” value [1, 9] was 5.1 (p = 0.02) %, the “% Imp.: cancer treatment … entire prostate” value ([1]; FT 15 mg, <=18 mos) was 80.6% and the “percentage of patients: cancer treatment with new multifocal with Gleason upgrade, entire prostate” value [1, 10] was 7.1 (p = 0.17) %. The “% Imp.: cancer treatment … entire prostate” value ([1]; FT 15 mg, <=36 mos) was 79.9%, the “percentage of patients: cancer treatment with new multifocal with Gleason upgrade, entire prostate” value [1, 11] was 8.3 (p = 0.003) % and the “% Imp.: cancer treatment … entire prostate” value ([1]; FT 15 mg, <=48 mos) was 83.4%. For the same substance, the “percentage of patients: cancer treatment with new multifocal with Gleason upgrade, entire prostate” value [1, 12] was 7.5 (p = 0.02) %, the “% Imp.: cancer treatment … entire prostate” value [1, 13] was 71.5% and the “percentage of patients: cancer treatment with new multifocal with Gleason upgrade, entire prostate” value [1, 14] was 12.1 (p = 0.026) %. The “% Imp.: cancer treatment … entire prostate” value [1, 15] was 65.7%, the “percentage of patients: cancer treatment with new multifocal with Gleason upgrade, entire prostate” value [1, 16] was 17 (p = 0.009) % and the “% Imp.: cancer treatment … entire prostate” value [1, 17] was 66%. For the same substance, the “percentage of patients: hemi-prostate multifocal cancer with Gleason upgrade” value [2, 6] was 8.6%, the “% Imp.: hemi-prostate multifocal cancer with Gleason upgrade” value (“% Imp.: hemi-prostate multifocal cancer” for short) ([2]; FT 2.5 mg, <=18 mos) was 54.26% and the “percentage of patients: hemi-prostate multifocal cancer with Gleason upgrade” value [2, 7] was 16.7%. For the same substance, the “% Imp.: hemi-prostate multifocal cancer” value ([2]; FT 2.5 mg, <=36 mos) was 53.2%, the “percentage of patients: hemi-prostate multifocal cancer with Gleason upgrade” value [2, 8] was 42.9% and the “% Imp.: hemi-prostate multifocal cancer” value ([2]; FT 2.5 mg, <=48 mos) was 5.7%. For the same substance, the “percentage of patients: hemi-prostate multifocal cancer with Gleason upgrade” value [2, 9] was 5.7%, the “% Imp.: hemi-prostate multifocal cancer” value ([2]; FT 15 mg, <=18 mos) was 69.7% and the “percentage of patients: hemi-prostate multifocal cancer with Gleason upgrade” value [2, 10] was 9.1 (p = 0.049) %. For the same substance, the “% Imp.: hemi-prostate multifocal cancer” value ([2]; FT 15 mg, <=36 mos) was 74.5%, the “percentage of patients: hemi-prostate multifocal cancer with Gleason upgrade” value [2, 11] was 13.3% and the “% Imp.: hemi-prostate multifocal cancer” value ([2]; FT 15 mg, <=48 mos) was 70.8%. The “percentage of patients: hemi-prostate multifocal cancer with Gleason upgrade” value [2, 12] was 7.1%, the “% Imp.: hemi-prostate multifocal cancer” value [2, 13] was 62.2% and the “percentage of patients: hemi-prostate multifocal cancer with Gleason upgrade” value [2, 14] was 13.0 (p = 0.0549) %. The “% Imp.: hemi-prostate multifocal cancer” value [2, 15] was 63.6%, the “percentage of patients: hemi-prostate multifocal cancer with Gleason upgrade” value [2, 16] was 27.6% and the “% Imp.: hemi-prostate multifocal cancer” value [2, 17] was 39.3%. The “histological changes in injected areas” value [3] was “typical apoptotic changes with positive immunohistochemical staining of markers for apoptosis are found throughout the injected areas”, the “percentage of patients: cancer treatment with new multifocal and an increase in Gleason grade primary pattern in the hemi-prostate” value [4, 6] was 0 (p = 0.025) % and the “% Imp.: cancer treatment with new multifocal and an increase in Gleason grade primary pattern in the hemi-prostate” value ([4]; FT 2.5 mg, <=18 mos) was 100%. The “percentage of patients: cancer treatment with new multifocal and an increase in Gleason grade primary pattern in the hemi-prostate” value [4, 7] was 0 (p = 0.017) %, the “% Imp.: cancer treatment with new multifocal and an increase in Gleason grade primary pattern in the hemi-prostate” value ([4]; FT 2.5 mg, <=36 mos) was 100% and the “percentage of patients: cancer treatment with new multifocal and an increase in Gleason grade primary pattern in the hemi-prostate” value [4, 8] was 0 (p = 0.031) %. The “% Imp.: cancer treatment with new multifocal and an increase in Gleason grade primary pattern in the hemi-prostate” value ([4]; FT 2.5 mg, <=48 mos) was 100%, the “percentage of patients: cancer treatment with new multifocal and an increase in Gleason grade primary pattern in the hemi-prostate” value [4, 9] was 2.6% and the “% Imp.: cancer treatment with new multifocal and an increase in Gleason grade primary pattern in the hemi-prostate” value ([4]; FT 15 mg, <=18 mos) was 75.2%. The “percentage of patients: cancer treatment with new multifocal and an increase in Gleason grade primary pattern in the hemi-prostate” value [4, 10] was 3.6%, the “% Imp.: cancer treatment with new multifocal and an increase in Gleason grade primary pattern in the hemi-prostate” value ([4]; FT 15 mg, <=36 mos) was 79.5% and the “percentage of patients: cancer treatment with new multifocal and an increase in Gleason grade primary pattern in the hemi-prostate” value [4, 11] was 4.2%. For the same substance, the “% Imp.: cancer treatment with new multifocal and an increase in Gleason grade primary pattern in the hemi-prostate” value ([4]; FT 15 mg, <=48 mos) was 77.7%, the “percentage of patients: cancer treatment with new multifocal and an increase in Gleason grade primary pattern in the hemi-prostate” value [4, 12] was 1.3 (p = 0.034) % and the “% Imp.: cancer treatment with new multifocal and an increase in Gleason grade primary pattern in the hemi-prostate” value [4, 13] was 87.6%. The “percentage of patients: cancer treatment with new multifocal and an increase in Gleason grade primary pattern in the hemi-prostate” value [4, 14] was 1.7 (p = 0.01) %, the “% Imp.: cancer treatment with new multifocal and an increase in Gleason grade primary pattern in the hemi-prostate” value [4, 15] was 90.3% and the “percentage of patients: cancer treatment with new multifocal and an increase in Gleason grade primary pattern in the hemi-prostate” value [4, 16] was 2.1 (p = 0.019) %. The “% Imp.: cancer treatment with new multifocal and an increase in Gleason grade primary pattern in the hemi-prostate” value [4, 17] was 88.8%, the “percentage of patients: new multifocal with increase Gleason primary pattern, entire prostate” value [5, 6] was 0 (p = 0.17) % and the “% Imp.: new multifocal with increase Gleason primary pattern, entire prostate” value ([5]; FT 2.5 mg, <=18 mos) was 100%. The “percentage of patients: new multifocal with increase Gleason primary pattern, entire prostate” value [5, 7] was 0 (p = 0.074) %, the “% Imp.: new multifocal with increase Gleason primary pattern, entire prostate” value ([5]; FT 2.5 mg, <=36 mos) was 100% and the “percentage of patients: new multifocal with increase Gleason primary pattern, entire prostate” value [5, 8] was 0 (p = 0.009) %. For the same substance, the “% Imp.: new multifocal with increase Gleason primary pattern, entire prostate” value ([5]; FT 2.5 mg, <=48 mos) was 100%, the “percentage of patients: new multifocal with increase Gleason primary pattern, entire prostate” value [5, 9] was 2.9% and the “% Imp.: new multifocal with increase Gleason primary pattern, entire prostate” value ([5]; FT 15 mg, <=18 mos) was 82.6%. For the same substance, the “percentage of patients: new multifocal with increase Gleason primary pattern, entire prostate” value [5, 10] was 4.5%, the “% Imp.: new multifocal with increase Gleason primary pattern, entire prostate” value ([5]; FT 15 mg, <=36 mos) was 82% and the “percentage of patients: new multifocal with increase Gleason primary pattern, entire prostate” value [5, 11] was 13.3%. For the same substance, the “% Imp.: new multifocal with increase Gleason primary pattern, entire prostate” value ([5]; FT 15 mg, <=48 mos) was 62.7%, the “percentage of patients: new multifocal with increase Gleason primary pattern, entire prostate” value [5, 12] was 1.4 (p = 0.049) % and the “% Imp.: new multifocal with increase Gleason primary pattern, entire prostate” value [5, 13] was 91.6%. For the same substance, the “percentage of patients: new multifocal with increase Gleason primary pattern, entire prostate” value [5, 14] was 2.1 (p = 0.0031) %, the “% Imp.: new multifocal with increase Gleason primary pattern, entire prostate” value [5, 15] was 91.6% and the “percentage of patients: new multifocal with increase Gleason primary pattern, entire prostate” value [5, 16] was 6.5 (p = 0.012) %. For the same substance, the “% Imp.: new multifocal with increase Gleason primary pattern, entire prostate” value [5, 17] was 81.8%.
